Measurements as given in patent publication US9695128B2, “Ethynyl derivatives” (Hoffmann-La Roche Inc., priority 2014, dated 2017).

Legend:
[1] = molecular target: recombinant human mGlu4 expressed in HEK293 cells (Homo sapiens (Human), UniProt Q14833); test: Ca2+ mobilization in vitro assay, mGlu4 PAM (with EC20 of L-AP4); format: cell-based; details: for Emax: HEK293, maximal response in % of the maximal stimulatory effect obtained with saturating concentrations of L-AP4, read-out: Eff. (%); for EC50: human mGlu4 in HEK293 cells, Ca2+ mobilization, L-AP4 at EC20, read-out: EC50 (nM) mGlu4PAM
Chain of recombinant human mGlu4 expressed in HEK293 cells (Q14833 33-912): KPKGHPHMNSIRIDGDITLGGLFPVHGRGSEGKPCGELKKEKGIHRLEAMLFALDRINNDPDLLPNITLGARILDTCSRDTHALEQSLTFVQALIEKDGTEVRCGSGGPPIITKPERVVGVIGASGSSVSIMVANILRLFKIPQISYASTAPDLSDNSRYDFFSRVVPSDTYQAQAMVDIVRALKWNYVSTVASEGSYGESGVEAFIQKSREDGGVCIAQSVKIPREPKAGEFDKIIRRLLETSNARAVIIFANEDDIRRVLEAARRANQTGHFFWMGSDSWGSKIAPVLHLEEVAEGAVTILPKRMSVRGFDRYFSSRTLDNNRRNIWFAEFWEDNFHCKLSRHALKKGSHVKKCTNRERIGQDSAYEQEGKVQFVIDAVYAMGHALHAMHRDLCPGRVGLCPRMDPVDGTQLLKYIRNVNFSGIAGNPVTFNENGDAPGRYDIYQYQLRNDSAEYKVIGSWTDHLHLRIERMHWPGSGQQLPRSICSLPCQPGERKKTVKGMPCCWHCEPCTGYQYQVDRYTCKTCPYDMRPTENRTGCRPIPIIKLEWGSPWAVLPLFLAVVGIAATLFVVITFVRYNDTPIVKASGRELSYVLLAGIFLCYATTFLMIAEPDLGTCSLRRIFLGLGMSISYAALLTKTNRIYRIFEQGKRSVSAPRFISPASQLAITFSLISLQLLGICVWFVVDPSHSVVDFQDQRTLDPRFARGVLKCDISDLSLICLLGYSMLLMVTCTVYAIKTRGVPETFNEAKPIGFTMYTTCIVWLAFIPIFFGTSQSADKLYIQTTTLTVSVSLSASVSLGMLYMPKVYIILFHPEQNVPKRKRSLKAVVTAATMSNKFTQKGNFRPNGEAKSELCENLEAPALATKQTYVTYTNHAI
Procedure: Determination of EC50 Values Using a Ca2+ Mobilization in vitro Assay on Recombinant Human mGlu4 Expressed in HEK293 Cells:
A monoclonal HEK-293 cell line stably transfected with a cDNA encoding for the human mGlu4 receptor was generated; for the work with mGlu4 Positive Allosteric Modulators (PAMs), a cell line with low receptor expression levels and low constitutive receptor activity was selected to allow the differentiation of agonistic versus PAM activity. Cells were cultured according to standard protocols (Freshney, 2000) in Dulbecco's Modified Eagle Medium with high glucose supplemented with 1 mM glutamine, 10% (vol/vol) heat-inactivated bovine calf serum, Penicillin/Streptomycin, 50 μg/ml hygromycin and 15 μg/ml blasticidin (all cell culture reagents and antibiotics from Invitrogen, Basel, Switzerland). • About 24 hrs before an experiment, 5×10^4 cells/well were seeded in poly-D-lysine coated, black/clear-bottomed 96-well plates. The cells were loaded with 2.5 μM Fluo-4AM in loading buffer (1×HBSS, 20 mM HEPES) for 1 hr at 37° C. and washed five times with loading buffer. The cells were transferred into a Functional Drug Screening System 7000 (Hamamatsu, Paris, France), and 11 half logarithmic serial dilutions of test compound at 37° C. were added and the cells were incubated for 10-30 min. with on-line recording of fluorescence. Following this pre-incubation step, the agonist (2S)-2-amino-4-phosphonobutanoic acid (L-AP4) was added to the cells at a concentration corresponding to EC20 with on-line recording of fluorescence; in order to account for day-to-day variations in the responsiveness of cells, the EC20 of L-AP4 was determined immediately ahead of each experiment by recording of a full dose-response curve of L-AP4.
Responses were measured as peak increase in fluorescence minus basal (i.e. fluorescence without addition of L-AP4), normalized to the maximal stimulatory effect obtained with saturating concentrations of L-AP4. Graphs were plotted with the % maximal stimulatory using XLfit, a curve fitting program that iteratively plots the data using Levenburg Marquardt algorithm. The single site competition analysis equation used was y=A+((B−A)/(1+((x/C)D))), where y is the % maximal stimulatory effect, A is the minimum y, B is the maximum y, C is the EC50, x is the log 10 of the concentration of the competing compound and D is the slope of the curve (the Hill Coefficient). From these curves the EC50 (drug concentration at which 50% of the maximal receptor activation was achieved), the Hill coefficient as well as the maximal response in % of the maximal stimulatory effect obtained with saturating concentrations of L-AP4 were calculated (see FIG. 1).
A depression of the signal observed after addition of the EC20 concentration of L-AP4 was indicative of an inhibitory activity of the test compound.

mice treated with MPTP = details: cited from earlier work
[2] = system: marble burying test in mice; details: reported by Addex 2010; cited from earlier work
EPM in mice = details: reported by Addex 2010; cited from earlier work
EPM in rats = details: cited from earlier work
[3] = system: 6-OHDA rodent model of PD; details: cited from earlier work

SMILES: CC(C)N1C(=O)N(c2c(F)cc(C#Cc3ccccc3)cc2F)C(=O)C1C (racemic) [Example 2, (5RS)-3-[2,6-Difluoro-4-(2-phenylethynyl)phenyl]-1-isopropyl-5-methyl-imidazolidine-2,4-dione]
- Emax [1]: 107%
- EC50 [1]: 104 nM

SMILES: CC1COCC2C(=O)N(c3c(F)cc(C#Cc4ccccc4)cc3F)C(=O)N12 (racemic) [Example 4, (5RS,8aRS)-2-[2,6-Difluoro-4-(2-phenylethynyl)phenyl]-5-methyl-5,6,8,8a-tetrahydroimidazo[5,1-c][1,4]oxazine-1,3-dione]
- Emax [1]: 188%
- EC50 [1]: 204 nM

SMILES: O=C1C2Cc3ccccc3N2C(=O)N1c1c(F)cc(C#Cc2ccccc2)cc1F (racemic) [Example 5, (3aRS)-2-[2,6-Difluoro-4-(2-phenylethynyl)phenyl]-3a,4-dihydroimidazo[1,5-a]indole-1,3-dione]
- Emax [1]: 103%
- EC50 [1]: 188 nM

SMILES: O=C1C2CCc3ccccc3N2C(=O)N1c1c(F)cc(C#Cc2ccccc2)cc1F (racemic) [Example 6, (3aRS)-2-[2,6-Difluoro-4-(2-phenylethynyl)phenyl]-4,5-dihydro-3aH-imidazo[1,5-a]quinoline-1,3-dione]
- Emax [1]: 110%
- EC50 [1]: 74 nM

SMILES: O=C1C2Cc3ccccc3CN2C(=O)N1c1c(F)cc(C#Cc2ccccc2)cc1F (racemic) [Example 9, (10aRS)-2-[2,6-Difluoro-4-(2-phenylethynyl)phenyl]-10,10a-dihydro-5H-imidazo[1,5-b]isoquinoline-1,3-dione]
- Emax [1]: 99%
- EC50 [1]: 56 nM

SMILES: CC1CCCC2C(=O)N(c3ccc(C#Cc4ccccc4)cc3Cl)C(=O)N12 (racemic) [Example 10, (5RS,8aRS)-2-[2-Chloro-4-(2-phenylethynyl)phenyl]-5-methyl-6,7,8,8a-tetrahydro-5H-imidazo[1,5-a]pyridine-1,3-dione]
- Emax [1]: 232%
- EC50 [1]: 256 nM

SMILES: CC1CCCC2C(=O)N(c3c(F)cc(C#Cc4cccnc4)cc3Cl)C(=O)N12 (racemic) [Example 11, (5RS,8aRS)-2-[2-Chloro-6-fluoro-4-[2-(3-pyridyl)ethynyl]phenyl]-5-methyl-6,7,8,8a-tetrahydro-5H-imidazo[1,5-a]pyridine-1,3-dione]
- Emax [1]: 140%
- EC50 [1]: 180 nM

SMILES: O=C(Nc1ccccc1)C12CC1/C(=N\O)c1ccccc1O2 (single isomer, unassigned; (-)) [(−)-PHCCC]
- nigrostriatal degeneration (mice treated with MPTP): reduced nigrostriatal degeneration

SMILES: Cc1ccnc(Nc2nc(-c3cn[nH]c3)c(C)s2)n1 [ADX88178]
- activity in marble burying test [2]: active
- activity in EPM (EPM in mice): active
- profile in rat EPM test (EPM in rats; rat, after oral dosing): anxiolytic-like profile
- activity in EPM (EPM in rats; rats, reported by Addex 2010): active

SMILES: CC(C)N1CC(=O)N(c2c(F)cc(C#Cc3ccccc3)cc2F)C1=O [Example 1, 3-[2,6-Difluoro-4-(2-phenylethynyl)phenyl]-1-isopropyl-imidazolidine-2,4-dione]
- Emax [1]: 154%
- EC50 [1]: 441 nM

SMILES: CC(C)N1C(=O)N(c2c(F)cc(C#Cc3ccccc3)cc2F)C(=O)C1(C)C [Example 3, 3-[2,6-Difluoro-4-(2-phenylethynyl)phenyl]-1-isopropyl-5,5-dimethyl-imidazolidine-2,4-dione]
- Emax [1]: 98%
- EC50 [1]: 286 nM

SMILES: CC1(C)C(=O)N(c2c(F)cc(C#Cc3ccccc3)cc2F)C(=O)N1c1ccccc1 [Example 7, 3-[2,6-Difluoro-4-(2-phenylethynyl)phenyl]-5,5-dimethyl-1-phenyl-imidazolidine-2,4-dione]
- Emax [1]: 222%
- EC50 [1]: 242 nM

SMILES: CC(C)(C)N1CC(=O)N(c2c(F)cc(C#Cc3ccccc3)cc2F)C1=O [Example 8, 1-tert-Butyl-3-[2,6-difluoro-4-(2-phenylethynyl)phenyl]imidazolidine-2,4-dione]
- Emax [1]: 143%
- EC50 [1]: 222 nM

SMILES: O=C1CN(C2CC2)C(=O)N1c1c(F)cc(C#Cc2ccccc2)cc1F [Example 12, 1-Cyclopropyl-3-[2,6-difluoro-4-(2-phenylethynyl)phenyl]imidazolidine-2,4-dione]
- Emax [1]: 113%
- EC50 [1]: 370 nM

SMILES: CC(C)N1C(=O)N(c2c(F)cc(C#Cc3ccccc3)cc2F)C(=O)C12COC2 [Example 13, 7-[2,6-Difluoro-4-(2-phenylethynyl)phenyl]-5-isopropyl-2-oxa-5,7-diazaspiro[3.4]octane-6,8-dione]
- Emax [1]: 100%
- EC50 [1]: 230 nM

SMILES: N[C@@H](CCP(=O)(O)O)C(=O)O [L-AP4, (2S)-2-amino-4-phosphonobutanoic acid]
- neuroprotective effects [3]: demonstrated neuroprotective effects
